# Experimental data as given in patent publication US4935509A (priority 1989, dated 1990).
# What was measured:
# P388 leukemia [1] = test: Increase in mean survival time of mice bearing P388 leukemia; type: in vivo; conditions: 0.12 mg/kg (optimal dose), i.p.
# Protocol: The efficacy of the remaining compounds is clearly documented by the fact that each increased the mean survival time of tumor-bearing mice in a dose-dependentmanner. […] The percent increase in mean survival time (MST) which appears in Table IV was calculated by the following formula: [formula]
# COLO-320-DM = test: MTT cell count (ID50), human colon cancer cell line COLO-320-DM; type: cell-based; conditions: 144 h, read-out: ID50 COLO-320
# Protocol: (§1) In the various assays set forth below the colorimetric determination of the number of cells was carried out by the following procedure using MTT.
# (§2) 3-(4,5-dimethylthiazol-2-yl)-2,5-dipenyl tetrazolium bromide (MTT) was prepared as a 5 mg/ml stock solution in phosphate buffered saline, filtered through a 0.22 μm filter and stored for up to two weeks at 4° C. while protected from light. For use in the assay it was diluted to 1 mg/ml in a pH 7.2 solution of phenol-red-free RPMI 1640 tissue culture medium supplemented with 1 mM sodium pyruvate and 50 μg/ml gentamycin. The assay was done in flat bottomed 96-well microtiter plates. Culture medium was removed from the wells by inverting and blotting the plate, fifty μl of MTT solution was added to the cells in each well, and each plate was incubated at 37° C. in an atmosphere of 5% CO2 in air. After incubation, each plate was centrifuged for 5 minutes at 8000×g and excess MTT removed by inverting and blotting. Fifty μl of 95% ethanol was added to each well and the plate was shaken (speed 6.5 for 15 minutes) to solubilize the formazan in each well. The optical density of each well was measured using an automatic plate reader with a test wavelength of 570 nm and a reference wavelength of 630 nm.
# (§3) The in vitro effects of the novel compounds as compared to vinblastine and vincristine on three human colon cancer cell lines and one non-transformedhuman cell line were determined by the following procedure.
# (§4) The non-transformed human fibroblast cell line, WI-38 and two of the human colon cancer cell lines, COLO-320-DM and HT-29, were obtained from the American Type Culture Collection, Rockville, MD and the third human colon cancer cell line, OM-1, was supplied by E. I. du Pont de Nemours and Co., Inc., Glenholden, PA. Both OM-1 and COLO-320-DM cells were maintained by serial passage in RPMI 1640 tissue culture medium supplemented to 10% (v/v) with heat-inactivated FBS. HT-29 cells were similarly maintained in McCoys 5A tissue culture medium supplemented with 10% heat-inactivated FBS. COLO-320-DM cells were detached by gentle scraping while HT-29 and OM-1 cells were detached using 0.25% trypsin and 0.05% trypsin, 0.5 mM EDTA solutions respectively. All cultures were incubated at 37° C. in a humidified environment of 5% CO2 in air. Experiments were conducted in 96-well flat-bottomed plates. The initial cell seeds per well for each cell line were 4,000 for WI- 38; 2,000 for COLO-320-DM; 750 for HT-29; and 3,000 for OM-1, each in the appropriate tissue culture medium. Cells were plated 24 hours before test compound was added to allow cells to recover from the effects of physical scraping and trypsinization. Varying log10 dilutions of drug were added to triplicate sets of wells and cultures were incubated for 6 days at 37° in a humidified atmosphere of 5% CO2 in air. The number of cells per well at the end of the experiment was determined colorimetrically by the reduction of MTT as described above and the results for each compounds shown in Table II. For purposes of comparison, the concentration of each test compound required to reduce the final cell number to one-half of the number in drug-free control cultures (ID50) is shown in Table II.
# P388 wild-type cells = test: MTT cell count (ID50), P388 wild-type leukemia cells in vitro; type: cell-based, murine; conditions: Mus musculus, P388, 120 h, read-out: ID50 P388/Wild
# Protocol: as §1, §2
# (§5) The differential in vitro activity of the above compounds as compared to vincristine and vinblastine with regard to P388 wild-type and P388 multiple-drug resistant leukemia was carried out by the following procedure.
# (§6) Tissue culture-adapted lines of the P388 wild-type and P388 multiple-drug resistant cells (principally resistant to adriamycin) were obtained from the American Type Culture Collection, Rockville, MD. Experiments were conducted in 96-well microtiter plates with 300 cells from either line seeded in a volume of 200 μl of tissue culture medium (RPMI 1640 supplemented to 10% (v/v) with heat-inactivated fetal bovine serum (FBS) and to […] with 1-glutamine). Cells and varying log^10 dilutions of test compound were added to triplicate sets of wells on the same day and cultures were incubated for 5 days at 37° C. in a humidified atmosphere of 5% CO2 in air. The number of cells per well at the end of the experiment was determined colorimetrically by the reduction of MTT as described above.
# OM-1 = test: MTT cell count (ID50), human colon cancer cell line OM-1; type: cell-based; conditions: 144 h, read-out: ID50 OM-1
# Protocol: as §1, §2, §3, §4
# [2] = tested on: P388 multiple-drug resistant cells; test: cells; type: cell-based, murine
# Protocol: as §1, §2, §5, §6
# [3] = In vivo effect against P388 leukemia in mice (TD50, ED50, T.I.); conditions: mouse, in vivo, ip
# Source text: (§7) The in vivo effect of the novel compounds of this invention against P388 leukemia as compared to vinblastine and vincristine, were compared by the following procedure.
# (§8) P388 murine leukemia cells were obtained from Southern Research Institute, Birmingham, Ala., and were maintained by serial i.p. passage in C57BL/6 mice. Female (C57BL/6×DBA/2) F1 (BDF) mice of 6-8 weeks of age from Jackson Laboratories, Bar Harbor, Maine, received 1×10^6 P388 cells by i.p. inoculation on day 0. Compounds were dissolved in saline and administered i.p. to 10 tumor-bearing mice per dose level on days 0-4 and 7-9 using 5 to 10 log2 dilutions from a concentration known to be toxic. […] The therapeutic index (T.I.) for each compound was calculated by the formula: [formula]
# P388 leukemia [4] = test: as above; conditions: calculated from TD50 and ED50
# Source text: as §7, §8
# WI-38 fibroblast = test: MTT cell count (ID50), non-transformed human fibroblast cell line WI-38; type: cell-based; set-up: unit not given here; conditions: 6 days incubation
# Protocol: as §1, §2, §3, §4
# HT-29 = test: MTT cell count (ID50), human colon cancer cell line HT-29; type: cell-based; conditions: HT-29, 144 h, read-out: ID50 HT-29
# Protocol: as §1, §2, §3, §4
structure (smiles),measurement,setting,value
"CC[C@]12C=CCN3CC[C@@]4(c5cc([C@@]6(C(=O)OC)C[C@H]7CN(CCc8c6[nH]c6ccccc86)C[C@@H]6CCCC[C@H]76)c(OC)cc5N(C)[C@H]4[C@@](O)(C(=O)OC)[C@@H]1OC(C)=O)[C@@H]32 [E, (4aR,8aS,9R,11S)-15-[1,2,4,4a,5,6,7,8,8a,9,10,11,12,17-tetradecahydro-11-(methoxycarbonyl)-indolo(2',3':6,7,)azonino(1,2,3-bc)isoquinolin-11-yl] vindoline]",Mean Survival Time,"P388 leukemia [1]; vehicle 9.6 days (A), 10.1 days (E)",21.5 days
same,Increase in MST,P388 leukemia [1]; vs vehicle,113%
same,IC50,COLO-320-DM,300 nM
same,IC50,P388 wild-type cells,68 nM
same,IC50,OM-1,400 nM
same,Fold-resistance,"[2]; ID50 resistant cell line divided by ID50 wildtype cell line, 7200 min",6
same,IC50,"[2]; Mus musculus, P388, 120 h, read-out: ID50 P3/88/resist.",430 nM
same,LD50,[3],0.18 mg/kg
same,T.I. (therapeutic index),P388 leukemia [4],< 1
same,ID50 WI-38 fibroblast,WI-38 fibroblast,3 × 10^-7
same,IC50,HT-29,300 nM
